Source: ChEMBL document CHEMBL5223101, “Evolution of 3-(4-hydroxyphenyl)indoline-2-one as a scaffold for potent and selective anticancer activity” (RSC Med Chem, 2022)

Key:
HeLa = assay: Anticancer activity against human HeLa cells assessed as cell viability at 1 uM by tryphan blue staining based cell counter analysis relative to control; type: functional; conditions: read-out: Activity
T47D [1] = assay: Anticancer activity against human T47D cells assessed as cell viability at 1 uM by tryphan blue staining based cell counter analysis relative to control; type: functional; conditions: read-out: Activity
ES-2 = assay: Anticancer activity against human ES2 assessed as cell viability at 1 uM by tryphan blue staining based cell counter analysis relative to control; type: functional; conditions: read-out: Activity
MDA-MB-231 [2] = assay: Anticancer activity against human MDA-MB-231 cells assessed as cell viability at 1 uM by tryphan blue staining based cell counter analysis relative to control; type: functional; conditions: read-out: Activity
HEK-293T = assay: Anticancer activity against human HEK293T cells assessed as cell viability at 1 uM by tryphan blue staining based cell counter analysis relative to control; type: functional; conditions: read-out: Activity
T47D [3] = assay: Anticancer activity against human T47D cells assessed as cell proliferation incubated for 4 days by MTS assay; type: functional, cell-based; conditions: 96 h
MCF-10A = assay: Anticancer activity against human MCF-10A cells assessed as cell viability at 1 uM by tryphan blue staining based cell counter analysis relative to control; type: functional; conditions: read-out: Activity
BT-474 = assay: Anticancer activity against human BT-474 cells assessed as cell viability at 1 uM by tryphan blue staining based cell counter analysis relative to control; type: functional; conditions: read-out: Activity
MCF7 = assay: Anticancer activity against human MCF7 cells assessed as cell viability at 1 uM by tryphan blue staining based cell counter analysis relative to control; type: functional; conditions: read-out: Activity
T47D [4] = assay: Anticancer activity against human T47D cells assessed as cell growth inhibition incubated for 24 hrs; type: functional, cell-based; conditions: pooled result: one value given for 16 cell lines, strains, targets or settings
MDA-MB-231 [5] = assay: Anticancer activity against human MDA-MB-231 cells assessed as cell growth inhibition incubated for 24 hrs; type: functional, cell-based; conditions: MDA-MB-231, 24 h, pooled result: one value given for 13 cell lines, strains, targets or settings

Structure (SMILES) | viability at 1 µM (HeLa) [%] | viability at 1 µM (T47D [1]) [%] | viability at 1 µM (ES-2) [%] | viability at 1 µM (MDA-MB-231 [2]) [%] | viability at 1 µM (HEK-293T) [%] | IC50 (T47D [3]) [µM] | viability at 1 µM (MCF-10A) [%] | viability at 1 µM (BT-474) [%] | viability at 1 µM (MCF7) [%] | IC50 (T47D [4]) [µM] | IC50 (MDA-MB-231 [5]) [µM]
Cc1cccc2c1NC(=O)C2(c1ccc(O)cc1)c1ccc(O)cc1 | < 20 | < 20 | < 20 | < 20 | < 20 | 0.015 | < 20 | < 20 | < 20 | – | –
O=C1Nc2c(C(F)(F)F)cccc2[C@@]1(c1ccc(O)cc1)c1ccc(OC(F)(F)F)cc1 | – | – | – | – | – | – | – | – | – | 0.034 | 12.4
